Measurements published in patent US8598314B2 (priority 2007, dated 2013).
Where two headings read alike, the source gives them in different places.

How the values were obtained:
[1] = target: T1, endogenously expressed GLP-1 receptor, thyroid c-cell carcinoma line 6-23 (Rattus norvegicus, UniProt P32301); assay: GLP-1 cyclase whole cell cAMP assay; assay type: cell-based
T1 construct: the endogenously expressed GLP-1 receptor; endogenous in cells; host or cells: thyroid c-cell carcinoma line 6-23
T1 sequence (P32301 22-463): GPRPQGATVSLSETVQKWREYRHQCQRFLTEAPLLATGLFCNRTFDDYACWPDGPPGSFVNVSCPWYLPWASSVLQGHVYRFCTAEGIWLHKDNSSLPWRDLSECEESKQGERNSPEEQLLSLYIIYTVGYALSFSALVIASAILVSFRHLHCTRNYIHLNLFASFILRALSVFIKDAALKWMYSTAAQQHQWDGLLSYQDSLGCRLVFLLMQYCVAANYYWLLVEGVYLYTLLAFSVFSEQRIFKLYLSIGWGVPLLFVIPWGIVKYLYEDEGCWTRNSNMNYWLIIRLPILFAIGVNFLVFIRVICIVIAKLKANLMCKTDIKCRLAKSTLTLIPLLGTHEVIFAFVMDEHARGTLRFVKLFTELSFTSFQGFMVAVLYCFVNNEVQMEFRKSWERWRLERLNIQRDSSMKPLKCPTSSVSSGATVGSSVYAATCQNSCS
Protocol: Cells from the thyroid c-cell carcinoma line 6-23 were grown to confluence and harvested by treatment with Versene ([…]). […] Accumulation of cAMP was measured following 30′ conjugate or control agent treatment using an HTRF® cell-based cAMP assay kit (Cisbio-US, Inc., Bedford, Mass.) in 384-well format. The compounds were tested at final concentrations from 1 μM to 10 pM. The cell-conjugate mixture was incubated for 30′ at room temperature, at which time the reaction was terminated by the addition of kit-provided α-cAMP Cryptate solution. Plates were then sealed and stored at room temperature overnight to allow components to come to full equilibrium. cAMP content was then measured by time resolved fluorescence.

[2] = target: T2, ACE from rabbit lung (Oryctolagus cuniculus, UniProt P12822); assay: ACE inhibition assay; assay type: biochemical
T2 construct: ACE from rabbit lung; purchased Sigma Chemical Co; host or cells: rabbit lung tissue
T2 sequence (P12822 34-1310): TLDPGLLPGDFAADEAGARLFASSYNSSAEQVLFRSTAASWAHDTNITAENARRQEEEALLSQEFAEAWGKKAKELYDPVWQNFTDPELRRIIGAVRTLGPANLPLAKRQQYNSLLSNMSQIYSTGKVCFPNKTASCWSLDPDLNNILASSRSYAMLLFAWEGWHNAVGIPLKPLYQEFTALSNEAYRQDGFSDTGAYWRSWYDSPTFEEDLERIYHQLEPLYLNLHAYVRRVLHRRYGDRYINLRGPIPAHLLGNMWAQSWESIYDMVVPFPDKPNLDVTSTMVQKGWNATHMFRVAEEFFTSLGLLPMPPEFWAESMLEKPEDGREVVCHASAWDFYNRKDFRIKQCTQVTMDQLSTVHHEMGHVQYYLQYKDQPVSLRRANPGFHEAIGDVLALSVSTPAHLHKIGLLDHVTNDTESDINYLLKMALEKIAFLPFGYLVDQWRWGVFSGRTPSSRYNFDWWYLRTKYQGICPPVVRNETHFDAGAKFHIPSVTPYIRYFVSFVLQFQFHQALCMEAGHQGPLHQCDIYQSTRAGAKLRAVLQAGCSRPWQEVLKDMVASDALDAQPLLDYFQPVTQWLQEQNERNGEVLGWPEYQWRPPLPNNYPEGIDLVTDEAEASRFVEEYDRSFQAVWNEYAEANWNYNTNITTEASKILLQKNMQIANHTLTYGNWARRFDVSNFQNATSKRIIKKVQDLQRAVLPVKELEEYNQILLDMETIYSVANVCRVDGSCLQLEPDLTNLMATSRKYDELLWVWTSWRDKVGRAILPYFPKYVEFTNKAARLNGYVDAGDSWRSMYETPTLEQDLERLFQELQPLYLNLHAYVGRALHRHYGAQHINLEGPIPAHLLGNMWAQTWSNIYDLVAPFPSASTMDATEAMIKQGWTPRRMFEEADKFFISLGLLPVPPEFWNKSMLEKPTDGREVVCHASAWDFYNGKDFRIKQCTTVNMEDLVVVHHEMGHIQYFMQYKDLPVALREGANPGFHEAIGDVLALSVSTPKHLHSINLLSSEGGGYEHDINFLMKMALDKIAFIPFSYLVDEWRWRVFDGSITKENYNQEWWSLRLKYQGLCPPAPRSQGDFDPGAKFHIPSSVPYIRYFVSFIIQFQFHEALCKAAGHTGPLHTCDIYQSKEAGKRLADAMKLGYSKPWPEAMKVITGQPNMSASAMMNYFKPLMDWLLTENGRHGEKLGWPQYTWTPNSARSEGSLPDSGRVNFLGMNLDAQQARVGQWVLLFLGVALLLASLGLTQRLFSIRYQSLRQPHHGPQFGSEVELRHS
Protocol: Peptide-ACE peptidase inhibitor conjugate compounds were assessed in an ACE inhibition assay using purified ACE enzyme and chromogenic substrates. An ACE stock solution was prepared by dissolving 0.1 unit of enzyme (ACE from rabbit lung, Sigma Chemical Co., St. Louis, Mo.) in 0.640 mL of HEPES buffer (0.1 M, pH=8). A 2 mM stock solution of substrate (N-benzyloxycarbonyl-Phe-His-Leu-OH) dissolved in methanol. The ACE inhibitor compounds were dissolved in phosphate buffer (0.1 M, pH=8) at concentrations of 0.0, 1, 10, 20, 60 and 100 μM. For the inhibition assay, six 2 mL microcentrifuge tubes were prepared containing 1.45 mL of phosphate buffer pH=8, 0.05 mL of 10% NaCl and 0.015 mL of substrate solution. To each microcentrifuge tube was added 0.015 mL of one of the ACE inhibitor compound's stock solutions. The solutions were heated at 37° C. for about 5 minutes. The reaction was started by the addition of 5 μL of the ACE stock solution to each tube mixture (30 seconds in between). The reaction mixtures were incubated at 37° C. After 5 min, 10 min, 30 min and 60 min., aliquots of 100 μL were taken from each tube (each sample was taken in intervals of 30 seconds). Tubes containing the 100 μL sample were floated in a boiling water bath for 5 min. and then cooled. The reaction samples were then treated with 20 μL of 2M NaOH and 20 μL of 0.1% phthaldialdehyde solution. The tubes were shaken for 4 minutes and 10 μL of 6 M HCl were added. […] Initial rates were determined from linear portions of product release curves. Starting substrate concentration in all assays was 20 μM. Apparent binding constants (Kd^app or Ki^app) of inhibitors to ACE were determined by fitting inhibition curves (initial rate vs. inhibitor concentration) to equation:
[formula] where v0 is reaction rate in the absence of inhibitor and [I]-inhibitor concentration. Fits were done by least-squares method using KaleidaGraph 3.6 (Synergy Software, Reading Pa.).

[3] = substrate N-benzyloxycarbonyl-Phe-His-Leu-OH 20 μM, read-out: ACE inhibition IC50

| Structure (SMILES) | EC50 [1] | IC50 [2, 3] | IC50 [2] |
| --- | --- | --- | --- |
| CC[C@H](C)[C@H](NC(=O)[C@H](Cc1ccccc1)NC(=O)[C@H](CC(C)C)NC(=O)[C@H](CCCNC(=N)N)NC(=O)[C@@H](NC(=O)[C@H](C)NC(=O)[C@H](CCC(=O)O)NC(=O)[C@H](CCC(=O)O)NC(=O)[C@H](CCC(=O)O)NC(=O)[C@H](CC(C)C)NC(=O)[C@H](CCC(N)=O)NC(=O)[C@H](CCCCN)NC(=O)[C@H](CO)NC(=O)[C@H](CC(C)C)NC(=O)[C@H](CC(=O)O)NC(=O)[C@H](CO)NC(=O)[C@@H](NC(=O)[C@H](Cc1ccccc1)NC(=O)[C@@H](NC(=O)CNC(=O)[C@H](CCC(=O)O)NC(=O)CNC(=O)[C@@H](N)Cc1c[nH]cn1)[C@@H](C)O)[C@@H](C)O)C(C)C)C(=O)N[C@@H](CCC(=O)O)C(=O)N[C@@H](Cc1c[nH]c2ccccc12)C(=O)N[C@@H](CC(C)C)C(=O)N[C@@H](CCCCN)C(=O)N[C@@H](CC(N)=O)C(=O)NCCCC(=O)NCCOCCOCC(=O)NCCCC(=O)NCCCC[C@H](NC(CCc1ccccc1)C(=O)O)C(=O)N1CCC[C@H]1C(=O)O (some centres unmarked) [Compound 5605] | 0.00124 µM | 0.3 µM |  |
| CC[C@H](C)[C@H](NC(=O)[C@H](Cc1ccccc1)NC(=O)[C@H](CC(C)C)NC(=O)[C@H](CCCNC(=N)N)NC(=O)[C@@H](NC(=O)[C@H](C)NC(=O)[C@H](CCC(=O)O)NC(=O)[C@H](CCC(=O)O)NC(=O)[C@H](CCC(=O)O)NC(=O)[C@H](CC(C)C)NC(=O)[C@H](CCC(N)=O)NC(=O)[C@H](CCCCN)NC(=O)[C@H](CO)NC(=O)[C@H](CC(C)C)NC(=O)[C@H](CC(=O)O)NC(=O)[C@H](CO)NC(=O)[C@@H](NC(=O)[C@H](Cc1ccccc1)NC(=O)[C@@H](NC(=O)CNC(=O)[C@H](CCC(=O)O)NC(=O)CNC(=O)[C@@H](N)Cc1c[nH]cn1)[C@@H](C)O)[C@@H](C)O)C(C)C)C(=O)N[C@@H](CCC(=O)O)C(=O)N[C@@H](Cc1c[nH]c2ccccc12)C(=O)N[C@@H](CC(C)C)C(=O)N[C@@H](CCCCN)C(=O)N[C@@H](CC(N)=O)C(=O)NCCOCCOCCOCC(=O)NCCOCCOCC(=O)NCCCC[C@H](NC(CCc1ccccc1)C(=O)O)C(=O)N1CCC[C@H]1C(=O)O (some centres unmarked) [Compound 5606] | 0.00023 µM | 0.7 µM |  |
| CC[C@H](C)[C@H](NC(=O)[C@H](Cc1ccccc1)NC(=O)[C@H](CC(C)C)NC(=O)[C@H](CCCNC(=N)N)NC(=O)[C@@H](NC(=O)[C@H](C)NC(=O)[C@H](CCC(=O)O)NC(=O)[C@H](CCC(=O)O)NC(=O)[C@H](CCC(=O)O)NC(=O)[C@H](CC(C)C)NC(=O)[C@H](CCC(N)=O)NC(=O)[C@H](CCCCN)NC(=O)[C@H](CO)NC(=O)[C@H](CC(C)C)NC(=O)[C@H](CC(=O)O)NC(=O)[C@H](CO)NC(=O)[C@@H](NC(=O)[C@H](Cc1ccccc1)NC(=O)[C@@H](NC(=O)CNC(=O)[C@H](CCC(=O)O)NC(=O)CNC(=O)[C@@H](N)Cc1c[nH]cn1)[C@@H](C)O)[C@@H](C)O)C(C)C)C(=O)N[C@@H](CCC(=O)O)C(=O)N[C@@H](Cc1c[nH]c2ccccc12)C(=O)N[C@@H](CC(C)C)C(=O)N[C@@H](CCCCN)C(=O)N[C@@H](CC(N)=O)C(=O)NCCOCCOCCOCC(=O)NCCCC(=O)NCCCC[C@H](NC(CCc1ccccc1)C(=O)O)C(=O)N1CCC[C@H]1C(=O)O (some centres unmarked) [Compound 5609] | 0.00065 µM | 1 µM |  |
| CC[C@H](C)[C@H](NC(=O)[C@H](Cc1ccccc1)NC(=O)[C@H](CC(C)C)NC(=O)[C@H](CCCNC(=N)N)NC(=O)[C@@H](NC(=O)[C@H](C)NC(=O)[C@H](CCC(=O)O)NC(=O)[C@H](CCC(=O)O)NC(=O)[C@H](CCC(=O)O)NC(=O)[C@H](CC(C)C)NC(=O)[C@H](CCC(N)=O)NC(=O)[C@H](CCCCN)NC(=O)[C@H](CO)NC(=O)[C@H](CC(C)C)NC(=O)[C@H](CC(=O)O)NC(=O)[C@H](CO)NC(=O)[C@@H](NC(=O)[C@H](Cc1ccccc1)NC(=O)[C@@H](NC(=O)CNC(=O)[C@H](CCC(=O)O)NC(=O)CNC(=O)[C@@H](N)Cc1c[nH]cn1)[C@@H](C)O)[C@@H](C)O)C(C)C)C(=O)N[C@@H](CCC(=O)O)C(=O)N[C@@H](Cc1c[nH]c2ccccc12)C(=O)N[C@@H](CC(C)C)C(=O)N[C@@H](CCCCN)C(=O)N[C@@H](CCC(N)=O)C(=O)NCC(=O)NCC(=O)N1CCC[C@H]1C(=O)N[C@@H](CO)C(=O)N[C@@H](CCCCN)C(=O)N[C@@H](CCC(=O)O)C(=O)N[C@H](C(=O)N[C@H](C(=O)N[C@@H](CO)C(=O)NCCCC(=O)NCCC(=O)NCCCC[C@H](NC(CCc1ccccc1)C(=O)O)C(=O)N1CCC[C@H]1C(=O)O)[C@@H](C)CC)[C@@H](C)CC (some centres unmarked) [Compound 5716] | 0.00014 µM |  | 0.14 µM |
